The results in this text go back to ChEMBL document CHEMBL5465560, “Selectivity Literature for EUbOPEN Chemogenomic Library” (2024).

The target of assay [1] is Serine/threonine-protein kinase 24 (Homo sapiens) (UniProt Q9Y6E0). Briefly: Selectivity interaction (KinomeScan (DiscoverX)) EUB0000699a STK24. The following applies: at 10 µM.
Assay [2] has as its target T1, Discoidin domain-containing receptor 2 (Homo sapiens) (UniProt Q16832).
T1 sequence (whole entry): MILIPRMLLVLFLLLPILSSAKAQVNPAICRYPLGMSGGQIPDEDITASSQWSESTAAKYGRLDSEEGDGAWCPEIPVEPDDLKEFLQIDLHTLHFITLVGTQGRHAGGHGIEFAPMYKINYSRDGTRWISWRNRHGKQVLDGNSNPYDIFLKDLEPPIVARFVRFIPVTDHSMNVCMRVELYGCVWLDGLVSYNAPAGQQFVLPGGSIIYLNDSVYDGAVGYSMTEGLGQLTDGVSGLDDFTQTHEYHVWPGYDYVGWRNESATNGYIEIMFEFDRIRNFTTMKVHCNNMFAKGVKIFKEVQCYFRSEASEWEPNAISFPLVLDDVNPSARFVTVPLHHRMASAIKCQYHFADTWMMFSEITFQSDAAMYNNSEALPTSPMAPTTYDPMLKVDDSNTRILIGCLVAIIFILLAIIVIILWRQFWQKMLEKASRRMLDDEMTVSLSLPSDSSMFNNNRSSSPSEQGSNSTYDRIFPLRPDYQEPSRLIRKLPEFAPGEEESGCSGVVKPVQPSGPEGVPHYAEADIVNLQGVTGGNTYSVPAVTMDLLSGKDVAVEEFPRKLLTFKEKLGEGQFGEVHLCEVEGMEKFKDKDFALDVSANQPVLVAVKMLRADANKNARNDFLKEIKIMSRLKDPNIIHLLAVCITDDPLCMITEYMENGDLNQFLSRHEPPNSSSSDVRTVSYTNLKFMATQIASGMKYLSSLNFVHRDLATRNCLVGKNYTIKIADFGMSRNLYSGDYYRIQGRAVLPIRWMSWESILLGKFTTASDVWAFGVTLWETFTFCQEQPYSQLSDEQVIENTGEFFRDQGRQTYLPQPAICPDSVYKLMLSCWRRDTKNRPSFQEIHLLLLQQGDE
Briefly: Selectivity interaction (KinomeScan (DiscoverX)) EUB0000045b DDR2.

Assay [3] deals with T2, Serine/threonine-protein kinase TBK1 (Homo sapiens) (UniProt Q9UHD2).
T2 sequence (whole entry): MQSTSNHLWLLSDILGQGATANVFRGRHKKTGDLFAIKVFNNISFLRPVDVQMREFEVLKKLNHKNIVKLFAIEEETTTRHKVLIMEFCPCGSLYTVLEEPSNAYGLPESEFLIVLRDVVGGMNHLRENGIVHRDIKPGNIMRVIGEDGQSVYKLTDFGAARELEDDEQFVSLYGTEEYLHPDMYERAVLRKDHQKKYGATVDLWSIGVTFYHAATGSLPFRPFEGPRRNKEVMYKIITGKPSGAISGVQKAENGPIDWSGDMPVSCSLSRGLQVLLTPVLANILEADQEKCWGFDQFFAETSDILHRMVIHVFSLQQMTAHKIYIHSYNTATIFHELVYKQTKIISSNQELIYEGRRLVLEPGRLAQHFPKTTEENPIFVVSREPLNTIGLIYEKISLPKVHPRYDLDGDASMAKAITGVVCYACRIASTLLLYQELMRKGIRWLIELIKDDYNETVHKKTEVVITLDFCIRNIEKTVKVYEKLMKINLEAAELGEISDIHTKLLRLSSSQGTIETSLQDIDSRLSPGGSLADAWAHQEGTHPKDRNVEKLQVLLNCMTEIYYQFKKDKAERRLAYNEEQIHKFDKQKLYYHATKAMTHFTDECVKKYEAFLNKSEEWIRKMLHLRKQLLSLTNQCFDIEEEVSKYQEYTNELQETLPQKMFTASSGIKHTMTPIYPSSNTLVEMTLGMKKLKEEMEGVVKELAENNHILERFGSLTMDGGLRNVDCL
Description: Selectivity interaction (KinomeScan (DiscoverX)) EUB0000045b TBK1.

For assay [4], the target named is 3',5'-cyclic-AMP phosphodiesterase 4D (Homo sapiens) (UniProt Q08499). Description: Selectivity interaction (Safety Panel 44tm (Eurofins)) EUB0000162b PDE4D. Particulars: at 10 µM.
Assay [5] has as its target T3, Ephrin type-B receptor 1 (Homo sapiens) (UniProt P54762).
T3 sequence (whole entry): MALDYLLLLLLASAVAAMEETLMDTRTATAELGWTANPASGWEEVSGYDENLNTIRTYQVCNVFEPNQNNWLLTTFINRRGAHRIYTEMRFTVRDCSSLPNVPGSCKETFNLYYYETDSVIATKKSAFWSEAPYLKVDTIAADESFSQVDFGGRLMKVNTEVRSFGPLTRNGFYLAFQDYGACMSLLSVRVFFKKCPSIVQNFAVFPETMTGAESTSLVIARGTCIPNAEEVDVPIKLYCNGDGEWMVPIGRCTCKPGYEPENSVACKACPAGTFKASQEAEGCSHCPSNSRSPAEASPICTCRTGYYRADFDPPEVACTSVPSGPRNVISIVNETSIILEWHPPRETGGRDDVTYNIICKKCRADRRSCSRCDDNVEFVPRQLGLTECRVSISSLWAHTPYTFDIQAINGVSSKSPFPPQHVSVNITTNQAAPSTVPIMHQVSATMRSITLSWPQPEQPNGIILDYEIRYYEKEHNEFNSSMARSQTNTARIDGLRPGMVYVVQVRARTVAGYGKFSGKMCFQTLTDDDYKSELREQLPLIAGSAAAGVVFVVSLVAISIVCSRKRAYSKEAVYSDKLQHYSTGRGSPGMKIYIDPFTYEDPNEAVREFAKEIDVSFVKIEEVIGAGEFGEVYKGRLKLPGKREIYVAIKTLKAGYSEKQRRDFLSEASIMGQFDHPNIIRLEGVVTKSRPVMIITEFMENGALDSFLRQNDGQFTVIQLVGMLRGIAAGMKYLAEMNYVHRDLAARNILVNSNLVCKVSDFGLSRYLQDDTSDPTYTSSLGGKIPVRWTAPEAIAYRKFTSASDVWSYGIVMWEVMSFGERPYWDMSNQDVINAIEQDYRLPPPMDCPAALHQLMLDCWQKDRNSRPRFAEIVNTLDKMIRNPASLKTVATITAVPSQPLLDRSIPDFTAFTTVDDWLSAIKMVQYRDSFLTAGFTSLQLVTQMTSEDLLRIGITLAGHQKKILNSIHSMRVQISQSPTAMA
Description: Selectivity interaction (ProQinase) EUB0000171b EPHB1.

Assay [6] concerns the target Serine/threonine-protein kinase pim-2 (Homo sapiens, UniProt Q9P1W9).
Assay [7] addresses Epidermal growth factor receptor (Homo sapiens, UniProt P00533). Briefly: Selectivity interaction (Millipore kinase profiler) EUB0000124b EGFR. Particulars: at 10 µM.

Serine/threonine-protein kinase pim-2, sequence (Q9P1W9 whole entry): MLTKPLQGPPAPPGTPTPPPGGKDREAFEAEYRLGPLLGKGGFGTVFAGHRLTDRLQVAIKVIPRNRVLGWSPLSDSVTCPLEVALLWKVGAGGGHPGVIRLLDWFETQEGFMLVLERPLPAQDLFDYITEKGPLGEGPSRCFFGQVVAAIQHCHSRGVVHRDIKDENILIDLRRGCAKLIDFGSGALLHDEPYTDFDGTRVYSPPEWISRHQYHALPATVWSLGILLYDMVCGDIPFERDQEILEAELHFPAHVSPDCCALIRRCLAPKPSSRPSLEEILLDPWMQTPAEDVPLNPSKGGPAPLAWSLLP
Epidermal growth factor receptor, sequence (P00533 whole entry): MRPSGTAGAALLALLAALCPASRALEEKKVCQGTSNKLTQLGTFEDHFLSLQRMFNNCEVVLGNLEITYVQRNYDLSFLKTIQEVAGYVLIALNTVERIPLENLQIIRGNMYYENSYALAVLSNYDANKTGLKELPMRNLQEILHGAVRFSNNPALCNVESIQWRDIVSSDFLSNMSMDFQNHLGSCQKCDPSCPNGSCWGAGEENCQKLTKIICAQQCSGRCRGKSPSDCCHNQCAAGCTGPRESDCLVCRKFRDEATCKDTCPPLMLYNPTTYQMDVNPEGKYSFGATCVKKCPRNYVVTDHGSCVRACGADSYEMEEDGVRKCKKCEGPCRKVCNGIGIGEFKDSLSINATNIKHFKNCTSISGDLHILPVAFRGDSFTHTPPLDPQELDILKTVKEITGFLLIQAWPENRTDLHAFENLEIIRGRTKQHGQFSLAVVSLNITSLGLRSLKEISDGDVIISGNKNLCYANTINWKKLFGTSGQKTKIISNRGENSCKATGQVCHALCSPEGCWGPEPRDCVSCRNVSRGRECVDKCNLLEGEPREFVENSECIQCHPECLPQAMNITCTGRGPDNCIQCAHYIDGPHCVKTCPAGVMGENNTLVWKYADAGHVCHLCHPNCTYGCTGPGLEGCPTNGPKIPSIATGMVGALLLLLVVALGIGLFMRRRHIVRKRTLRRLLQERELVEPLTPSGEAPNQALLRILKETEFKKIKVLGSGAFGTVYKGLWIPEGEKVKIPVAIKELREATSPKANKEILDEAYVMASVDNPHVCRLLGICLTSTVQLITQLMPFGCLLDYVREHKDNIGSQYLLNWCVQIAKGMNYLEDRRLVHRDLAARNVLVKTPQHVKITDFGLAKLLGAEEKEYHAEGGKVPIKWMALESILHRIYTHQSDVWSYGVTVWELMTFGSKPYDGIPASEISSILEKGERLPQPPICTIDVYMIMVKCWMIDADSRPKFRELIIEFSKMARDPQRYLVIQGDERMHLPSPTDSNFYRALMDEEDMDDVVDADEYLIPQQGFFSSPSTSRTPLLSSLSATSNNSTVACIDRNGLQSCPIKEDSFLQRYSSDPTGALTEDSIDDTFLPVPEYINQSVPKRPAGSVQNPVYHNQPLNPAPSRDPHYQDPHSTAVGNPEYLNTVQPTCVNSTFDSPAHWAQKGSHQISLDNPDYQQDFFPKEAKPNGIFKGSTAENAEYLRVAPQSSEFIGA
3',5'-cyclic-AMP phosphodiesterase 4D (Homo sapiens), sequence (Q08499 whole entry): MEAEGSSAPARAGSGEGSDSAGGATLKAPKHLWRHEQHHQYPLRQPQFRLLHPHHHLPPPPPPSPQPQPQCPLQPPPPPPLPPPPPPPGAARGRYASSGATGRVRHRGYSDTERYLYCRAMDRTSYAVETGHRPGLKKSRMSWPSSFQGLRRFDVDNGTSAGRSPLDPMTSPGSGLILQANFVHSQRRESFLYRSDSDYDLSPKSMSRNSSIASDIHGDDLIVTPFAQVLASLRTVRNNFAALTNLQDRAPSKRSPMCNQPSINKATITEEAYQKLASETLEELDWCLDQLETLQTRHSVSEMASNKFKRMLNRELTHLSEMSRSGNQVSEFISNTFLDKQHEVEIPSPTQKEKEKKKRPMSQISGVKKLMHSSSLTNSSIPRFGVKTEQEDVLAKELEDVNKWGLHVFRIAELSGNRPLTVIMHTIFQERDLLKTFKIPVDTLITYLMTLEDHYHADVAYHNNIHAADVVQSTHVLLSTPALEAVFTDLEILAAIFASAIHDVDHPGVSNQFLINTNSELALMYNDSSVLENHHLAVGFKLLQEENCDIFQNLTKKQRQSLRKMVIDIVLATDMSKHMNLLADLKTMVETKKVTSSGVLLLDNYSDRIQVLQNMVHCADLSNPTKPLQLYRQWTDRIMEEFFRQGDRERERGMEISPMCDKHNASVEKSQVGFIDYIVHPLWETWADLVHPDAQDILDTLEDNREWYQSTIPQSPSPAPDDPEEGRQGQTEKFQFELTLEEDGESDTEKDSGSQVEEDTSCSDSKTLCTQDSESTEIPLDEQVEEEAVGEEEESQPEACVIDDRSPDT
Serine/threonine-protein kinase 24 (Homo sapiens), sequence (Q9Y6E0 whole entry, looked up, the tested form may be a part): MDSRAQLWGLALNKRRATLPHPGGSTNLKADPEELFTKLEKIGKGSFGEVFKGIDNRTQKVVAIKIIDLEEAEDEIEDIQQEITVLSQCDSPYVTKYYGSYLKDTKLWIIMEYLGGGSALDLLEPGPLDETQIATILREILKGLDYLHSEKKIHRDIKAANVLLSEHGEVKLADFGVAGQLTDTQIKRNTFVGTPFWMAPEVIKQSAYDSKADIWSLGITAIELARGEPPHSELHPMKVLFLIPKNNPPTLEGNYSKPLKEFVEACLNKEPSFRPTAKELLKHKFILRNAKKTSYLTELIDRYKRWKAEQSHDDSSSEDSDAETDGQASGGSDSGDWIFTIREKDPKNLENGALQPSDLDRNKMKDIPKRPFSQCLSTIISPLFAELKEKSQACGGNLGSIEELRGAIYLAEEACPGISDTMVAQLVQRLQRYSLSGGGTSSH

`CCN(CC)CCCCNc1ncc2cc(-c3cc(OC)cc(OC)c3)c(NC(=O)NC(C)(C)C)nc2n1`: in assay [1], the % of control came to 7%.

As for `C=CC(=O)Nc1cc(-n2c(=O)ccc3cnc4ccc(-c5ccc(NS(C)(=O)=O)cc5)cc4c32)ccc1C`, the % of control in assay [2] (at 1 µM) is 100%; in assay [2] (at 10 µM), 100%; in assay [3] (at 1 µM), 100%; in assay [3] (at 10 µM), 77%.

As to `CN(C)C(=O)Cn1cc(-c2ccc(-c3cncc4ccccc34)cc2)cn1`, the % of control in assay [4] is 54%.

Regarding `C=CC(=O)Nc1cccc(C(=O)Nc2ccc(Nc3cc(-c4[nH]c(SC)nc4C)ccn3)cc2)c1`, the % of control stood at 83% in assay [5] (at 1 µM) and 82% in assay [5] (at 5 µM).

A word on the IC50: it is the midpoint of a concentration-inhibition curve. Low values mean higher potency, high ones lower potency. In turn, `CCc1cccc(CC)c1NC(=O)c1nn(C)c2c1CCc1cnc(Nc3ccc(C(=O)NC4CCN(C)CC4)cc3OC(F)(F)F)nc1-2` showed an IC50 in assay [6] above 10 µM.

On to `CC(=O)Nc1cccc(-n2c(=O)n(C3CC3)c(=O)c3c(Nc4ccc(I)cc4F)n(C)c(=O)c(C)c32)c1`, for which the % of control in assay [7] turned out to be 104%.
